Data taken from patent US12365687B2 (Hoffmann-La Roche Inc., priority 2021, dated 2025).

How the values were obtained:
[1] = molecular target: human GABAA α5β2γ1 receptor (Homo sapiens (Human), UniProt P31644+Q8N1C3); assay: Radioligand binding assay for γ1-containing GABAA subtypes, [3H]RO7239181 competition (α5β2γ1)
Protocol: (§1) The affinity of compounds at GABAA γ1 subunit-containing receptors was measured by competition for [^3H]RO7239181 (67.3 Ci/mmol; Roche) binding to membranes from HEK293F cells (ThermoFisher R79007) expressing human (transiently transfected) receptors of composition α5β2γ1, α2β2γ1, α1β2γ1.
(§2) Harvested pellets from HEK293F cells expressing the different GABAA receptor subtypes were resuspended in Mannitol Buffer pH 7.2-7.4 (Mannitol 0.29 M, Triethylamine 10 mM, Acetic acid 10 mM, EDTA 1 mM plus protease inhibitors (20 tablets Complete, Roche Diagnostics Cat. No. 05 056 489 001 per liter)), washed two times and then resuspended at 1:10 to 1:15 dilution in the same buffer. Cell disruption was performed by stirring the suspension in a Parr vessel #4637 at 435 psi for 15 minutes, and then the suspensions were centrifuged at 1000×g for 15 minutes at 4° C. (Beckman Avanti J-HC; rotor JS-4.2). The supernatant (S1) was transferred in a 2 l Schott flask and the pellet (P1) was resuspended with Mannitol Buffer up to 175 ml. The resuspended pellet was transferred into a 250 ml Corning centrifugal beaker and centrifuged at 1500×g for 10 minutes at 4° C. (Beckman Avanti J-HC; rotor JS-4.2). The supernatant (S1) was then transferred in the 2 l Schott flask and the pellet was discarded. The supernatants (S1) were centrifuged in 500 ml Beckman polypropylene centrifugal beaker at 15′000×g for 30 minutes at 4° C. (Beckman Avanti J-20 XP; rotor JLA-10.500). The pellet (P2) was resuspended with Mannitol Buffer 1:1 and frozen at −80° C. The supernatant (S2) was centrifuged in 100 ml Beckman polypropylene centrifugal tubes at 48000×g for 50 minutes at 4° C. (Beckman Avanti J-20 XP; rotor JA-18). The supernatant (S3) was discarded and the pellet (P3) was resuspended with 1:1 Mannitol Buffer. The P2 and P3 protein concentration was determined with the BIORAD Standard assay method with bovine serum albumin as standard and measured on the NANO-Drop 1000. The membrane suspension was aliquots (500 μl per tube) and stored at −80° C. until required.
(§3) Membrane homogenates were resuspended and polytronised (Polytron PT1200E Kinematica AG) in Potassium Phosphate 10 mM, KCl 100 mM binding buffer at pH 7.4 to a final assay concentration determined with a previous experiment.
(§4) Assays were incubated to equilibrium for 1 hour at 4° C. and then, membranes were filtered onto unifilter (96-well white microplate with bonded GF/C filters preincubated 20-50 minutes in 0.3% Polyethylenimine) with a Filtermate 196 harvester (Packard BioScience) and washed 4 times with cold Potassium Phosphate 10 mM pH 7.4, KCl 100 mM binding buffer. After anhydrousing, filter-retained radioactivity was detected by liquid scintillation counting. Ki values were calculated using Excel-Fit (Microsoft) and are the means of two determinations.

[2] = molecular target: human GABAA α2β2γ1 receptor (Homo sapiens (Human), UniProt P47869+Q8N1C3); assay: Radioligand binding assay for γ1-containing GABAA subtypes, [3H]RO7239181 competition (α2β2γ1)
Protocol: as §1, §2, §3, §4

[3] = molecular target: human GABAA α1β3γ2 receptor (Homo sapiens (Human), UniProt P14867+P18507); assay: Radioligand binding assay for γ2-containing GABAA subtypes, [3H]Flumazenil competition (α1β3γ2); details: for γ2/γ1 Selectivity Ratio: Ki α1β3γ2 (nM)/Ki α2β2γ1 (nM); for LogSel: Log[Ki α1β3γ2 (nM)/Ki α2β2γ1 (nM)]
Protocol: The affinity of compounds at GABAA γ2 subunit-containing receptors was measured by competition for [^3H]Flumazenil (81.1 Ci/mmol; Roche) binding to HEK293F cells expressing human (transiently transfected) receptors of composition α1β3γ2.
Harvested pellets from HEK293F cells expressing the different GABAA γ2 receptor subtypes were resuspended in Mannitol Buffer pH 7.2-7.4 and processed as described above for the cells expressing the GABAA γ1 subunit-containing receptors.
Assays were incubated to equilibrium for 1 hour at 4° C. and harvested onto GF/C uni-filters (Packard) by filtration using a Packard harvester and washing with ice-cold wash buffer (50 mM Tris; pH 7.5). After anhydrousing, filter-retained radioactivity was detected by liquid scintillation counting. Ki values were calculated using Excel-Fit (Microsoft) and are the means of two determinations.

[4] = molecular target: α2β2γ1 GABAA receptor subtype (Homo sapiens (Human), UniProt P47869+Q8N1C3); assay: Two-electrode voltage clamp electrophysiology in Xenopus oocytes expressing GABAA receptors (modulation of GABA EC20 current); format: cell-based; details: for Efficacy (GABA)%: % modulation of GABA EC20 = 100*(Fold increase-1), α2β2γ1 oocytes, compound at approx. 30-fold Ki; for Fold increase h-GABA-A α2β2γ1 oocyte @ 30-fold Ki: Xenopus oocytes expressing α2β2γ1, compound at approx. 30-fold its Ki α2β2γ1, GABA EC20 current; for potentiation of the GABA-induced current: α2β2γ1 GABAA receptor subtype expressing oocytes, GABA EC20
Protocol: Xenopus laevis oocytes at maturation stages V-VI were used for the expression of cloned mRNA encoding GABAA receptor subunits. Oocytes ready for RNA micro-injection were bought from Ecocyte, Castrop-Rauxel, Germany and stored in modified Barth's medium (composition in mM: NaCl 88, KCl 1, NaHCO3 2.4, HEPES 10, MgSO4 0.82, CaNO3 0.33, CaCl2 0.33, pH=7.5) at 20° C. until the experiment.
Oocytes were plated in 96-well plates for microinjection using the Roboinject automated instrument (MultiChannelSystems, Reutlingen, Germany). Approximately 50 nL of an aqueous solution containing the RNA transcripts for the subunits of the desired GABAA receptor subtype was injected into each oocyte. […] Oocytes were kept in modified Barth's medium (composition in mM: NaCl 88, KCl 1, NaHCO3 […], HEPES 10, MgSO4 0.82, CaNO3 0.33, CaCl2 0.33, pH=7.5) at 20° C. until the experiment.
Electrophysiological experiments were performed using the Roboocyte instrument (MultiChannelSystems, Reutlingen, Germany) on days 3 to 5 after the micro-injection of mRNA. During the experiment the oocytes were constantly superfused by a solution containing (in mM) NaCl 90, KCl 1, HEPES 5, MgCl2 1, CaCl2 1 (pH 7.4). Oocytes were impaled by two glass microelectrodes (resistance: 0.5-0.8 MΩ) which were filled with a solution containing KCl 1M+K-acetate 1.5 M and voltage-clamped to −80 mV. The recordings were performed at room temperature using the Roboocyte two-electrode voltage clamp system (Multichannelsystem). After an initial equilibration period of 1.5 min GABA was added for 1.5 min at a concentration evoking approximately 20% of a maximal current response (EC20). After another rest interval of 2.5 min GABA was again added evoking a response of similar amplitude and shape. […] Current traces were recorded at a digitization rate of 10 Hz during and shortly before and after the GABA application.
Each compound and concentration was tested on at least 3 oocytes. Different oocytes were used for different compound concentrations.
For the analysis, the digitized current traces of the first and second GABA response were superimposed and, if necessary, rescaled to equal maximal amplitudes. The ratio between the two responses during the time interval of test compound application was calculated point by point. The extremum of the resulting “ratio trace” was taken as the efficacy (“Fold increase”) of the compound expressed as “% modulation of GABA EC20” (100*(Fold increase-1)).

[5] = Ki h-GABAA α2β2γ1, [3H]RO7239181 competition binding, human GABAA α2β2γ1
[6] = Ki h-GABAA α2β2γ1, displacement of [3H]RO7239181, membranes of HEK293F cells expressing human receptors, means of two determinations
[7] = Ki h-GABAA α2β2γ1, Table 3, reference compounds

SMILES | Ki [1] [nM] | Ki [2, 5] [nM] | Ki [2, 6] [nM] | Ki [3] [nM] | γ2/γ1 Selectivity Ratio [3] | LogSel [3] | Efficacy (GABA)% [4] [%] | Fold increase h-GABA-A α2β2γ1 oocyte @ 30-fold Ki [4] | LogSel ([3]; Table 3) | potentiation of the GABA-induced current [4] [%] | Ki [2, 7] [nM] | γ2/γ1 Selectivity Ratio ([3]; Table 3)
C[C@@H]1N=C(c2c(F)cccc2F)c2c(ccc(Cl)c2Cl)-n2nc(C(=O)NC3(C#N)CC3)nc21 [Example 61, (4S)-7,8-dichloro-N-(1-cyanocyclopropyl)-6-(2,6-difluorophenyl)-4-methyl-4H-[1,2,4]triazolo[1,5-a][1,4]benzodiazepine-2-carboxamide] | 1.45 | 4.2 | 4.18 | 585 | 140.0 | 2.15 | 99 | 1.99 | – | – | – | –
C[C@@H]1N=C(c2ncccc2F)c2c(ccc(C(F)(F)F)c2Cl)-n2cc(CO)nc21 [Example 153, [(4S)-7-chloro-6-(3-fluoro-2-pyridyl)-4-methyl-8-(trifluoromethyl)-4H-imidazo[1,2-a][1,4]benzodiazepin-2-yl]methanol] | 6.76 | 62.4 | 61.7 | 6020 | 97.7 | 1.99 | 247 | 3.47 | – | – | – | –
C[C@@H]1N=C(c2ncccc2F)c2c(ccc(Cl)c2Cl)-n2nc(C(=O)N3CC4(CCCCO4)C3)nc21 [Example 101, [(4S)-7,8-dichloro-6-(3-fluoro-2-pyridyl)-4-methyl-4H-[1,2,4]triazolo[1,5-a][1,4]benzodiazepin-2-yl]-(5-oxa-2-azaspiro[3.5]nonan-2-yl)methanone] | 14.4 | 38 | 38 | 8680 | 228.3 | 2.36 | 97 | 1.97 | – | – | – | –
Cc1cnc2n1-c1ccc(C(F)(F)F)c(Cl)c1C(c1c(F)cccc1F)=N[C@H]2C [Example 115, (4S)-7-chloro-6-(2,6-difluorophenyl)-1,4-dimethyl-8-(trifluoromethyl)-4H-imidazo[1,2-a][1,4]benzodiazepine] | 2.63 | 12.3 | 12.3 | 827 | 67.4 | 1.83 | 49 | 1.49 | – | – | – | –
CO[C@H]1CCN(C(=O)c2nc3n(n2)-c2ccc(Cl)c(Cl)c2C(c2ncccc2F)=N[C@H]3C)C1 [Example 89, [(4S)-7,8-dichloro-6-(3-fluoro-2-pyridyl)-4-methyl-4H-[1,2,4]triazolo[1,5-a][1,4]benzodiazepin-2-yl]-[(3S)-3-methoxypyrrolidin-1-yl]methanone] | 6.15 | 69.7 | 69.7 | 6350 | 91.2 | 1.96 | 113 | 2.13 | – | – | – | –
Fc1cccc(F)c1C1=NCc2nc(C(F)F)cn2-c2ccc(Br)c(Cl)c21 [Example 3, 8-bromo-7-chloro-2-(difluoromethyl)-6-(2,6-difluorophenyl)-4H-benzo[f]imidazo[1,2-a][1,4]diazepine] | 1.28 | 30.2 | 30.2 | 455 | 15.0 | 1.18 | – | – | – | – | – | –
Cc1nnc2n1-c1ccc(Cl)cc1C(c1ccccc1Cl)=NC2 [Triazolam, reference compound] | – | – | – | – | – | – | – | – | −1.5 | ~60 | – | –
CN(C)C(=O)c1nc2n(n1)-c1ccc(Cl)cc1C(c1ccccc1F)=NC2 [RE-A, reference compound] | – | – | – | 35.6 | – | – | – | – | – | – | 276 | 0.13
C[C@@H]1N=C(c2ncccc2F)c2c(ccc(C(F)(F)F)c2Cl)-n2nc(C(=O)NCCF)nc21 [Example 152, (4S)-7-chloro-N-(2-fluoroethyl)-6-(3-fluoro-2-pyridyl)-4-methyl-8-(trifluoromethyl)-4H-[1,2,4]triazolo[1,5-a][1,4]benzodiazepine-2-carboxamide] | 20.4 | 89.9 | 89.9 | > 30000 | 333.7 | 2.52 | – | – | – | – | – | –
Cc1nnc2n1-c1ccc(Cl)cc1C(c1ccccc1)=NC2 [Alprazolam, reference compound] | – | – | – | – | – | – | – | – | −2.3 | – | – | –
CCOC(=O)c1nc2n(n1)-c1ccc(Cl)cc1C(c1ccccc1F)=NC2 [RE-B, reference compound] | – | – | – | 3.4 | – | – | – | – | – | – | 18.4 | 0.18
C[C@@H]1N=C(c2c(F)cccc2F)c2c(ccc(C(F)(F)F)c2Cl)-n2nc(C(=O)N3CC(OC(F)F)C3)nc21 [Example 51, [3-(difluoromethoxy)azetidin-1-yl]-[(4S)-7-chloro-6-(2,6-difluorophenyl)-4-methyl-8-(trifluoromethyl)-4H-[1,2,4]triazolo[1,5-a][1,4]benzodiazepin-2-yl]methanone] | – | – | – | 1560 | 53.3 | 1.73 | – | – | – | – | – | –
Cc1ncc2n1-c1ccc(Cl)cc1C(c1ccccc1F)=NC2 [Midazolam, reference compound] | – | – | – | – | – | – | – | – | −2.2 | ~60 | – | –
CN1C(=O)CN=C(c2ccccc2F)c2cc([N+](=O)[O-])ccc21 [Flunitrazepam, reference compound] | – | – | – | – | – | – | – | – | – | ~60 | – | –
